US12643853B2, “Cannabigerol proline cocrystals” (Manoira Corporation, priority 2019, dated 2026)

Experiments:
[1] = Solid-state stability of cannabigerol Form I at 50° C.; assay type: physicochemical; conditions: oven at 50° C. for 10 minutes; for solid form by XRPD after heating and cooling: then allowed to cool
Description: A study was carried out to assess the stability of cannabigerol Form I under conditions of temperatures commonly reached during processing and storage. Cannabigerol Form I (50 mg) was placed in an oven at 50° C. for 10 minutes. […] The sample was allowed to cool after which time a solid was produced.

[2] = oven at 100° C. for 20 hours
Description: (§1) X-Ray Powder Diffraction Characterisation: X-ray powder diffraction patterns for the samples were acquired on a Bruker D8 diffractometer using CuKα radiation (40 kV, 40 mA), θ-2θ goniometer, V4 receiving slits, a Ge monochromator and a Lynxeye detector. The instrument is performance checked using a certified Corundum standard (NIST 1976). The data were collected over an angular range of 4° to 30° 2Θ using a step size of 0.05° 2Θ and a step time of 4 seconds. Samples were run under ambient conditions as flat plate specimens using powder as received. Approximately, 35 mg of the sample was gently packed into a cavity cut into polished, zero background (510) silicon wafer. The software used for data collection and analysis was Diffrac Plus XRD Commander and Diffrac Plus EVA respectively.

[3] = sealed container, 40° C. and 75% relative humidity, 8 weeks
Description: as §1
A study was carried out to examine the physical stability of the 1:2 cannabigerol L-proline cocrystal with respect to solid form conversion or deliquescence over time under accelerated conditions. 1:2 Cannabigerol L-proline cocrystal (50 mg) was placed in a sealed container at 40° C. and 75% relative humidity and stored under these conditions for 8 weeks. […] The sample was analysed by XRPD to observe any potential form changes.

Row | Structure (SMILES) | physical state after heating [1] | solid form by XRPD after heating and cooling [1] | solid form by XRPD after heating and cooling ([1]; listed as cannabigerol Form I) | physical state after heating ([1]; listed as cannabigerol Form I) | solid form conversion by XRPD after high temperature storage [2] | physical state / deliquescence after storage [3] | solid form conversion by XRPD after storage ([3]; XRPD)
1 | CCCCCc1cc(O)c(C/C=C(\C)CCC=C(C)C)c(O)c1 [Cannabigerol Form I, 2-[(2E)-3,7-dimethylocta-2,6-dienyl]-5-pentyl-benzene-1,3-diol] | melted to produce an oil | undergone a polymorph transition to form a new polymorphic form (designated Form III) | undergone a form conversion to a previously unidentified polymorph (designated Form III) | became a liquid | – | – | –
2 | CCCCCc1cc(O)c(C/C=C(\C)CCC=C(C)C)c(O)c1.O=C(O)[C@@H]1CCCN1.O=C(O)[C@@H]1CCCN1 [1:2 cannabigerol L-proline cocrystal] | – | – | – | – | retained its original crystalline form | completely solid with no signs of deliquescence | retained its original crystalline form
